Values of other authors, collected in patent publication US6197535A, “Methods for purifying and assaying a conus γ-carboxylase” (University of Utah Research Foundation, priority 1999, dated 2001).

Tested on: N-methyl-D-aspartate receptor
Details: cited from earlier work

Substance: Conantokin-G
- inhibition of the N-methyl-D-aspartate receptor: inhibits
